How the values were obtained:
Experiment in all cases: Bliss excess, mean over the matrix (fraction); higher = more synergy
[1] = test system: BHT-101 (Thyroid Gland Carcinoma)
Summary of the method: (§1)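 Cell lines grown in DMEM/F12 or RPMI with 10% FBS were plated in 1536-well plates and held 24 hours at 37°C, 5% CO2 before 72 hours of exposure to two-drug dose matrices, with DMSO typically at 0.2%. CellTiter-Glo 2.0 luminescence gave viability, which was converted to inhibition. Vehicle wells were set to 0 and blank wells to 1. Combination Emax is the second-highest inhibition in the matrix, and Bliss excess is the observed combination effect minus the expected EA + EB − EA·EB, where EA and EB are the single-agent effects.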

[2] = test system: SK-CO-1 (Colorectal Carcinoma)
Summary of the method: as §1

[3] = test system: ZR-75-30 (Breast Carcinoma)
Summary of the method: as §1

[4] = test system: PL4 (Pancreatic Carcinoma)
Summary of the method: as §1

[5] = test system: MONO-MAC-6 (Acute Myeloid Leukemia)
Summary of the method: as §1

[6] = test system: IA-LM (Non-Small Cell Lung Carcinoma)
Summary of the method: as §1

[7] = test system: SUP-M2 (T-Cell Non-Hodgkin's Lymphoma)
Summary of the method: as §1

[8] = test system: Raji (Burkitt's Lymphoma)
Summary of the method: as §1

[9] = test system: NAMALWA (Burkitt's Lymphoma)
Summary of the method: as §1

[10] = test system: BxPC-3 (Pancreatic Carcinoma)
Summary of the method: as §1

[11] = test system: MDA-MB-415 (Breast Carcinoma)
Summary of the method: as §1

[12] = test system: SiHa (Cervical Carcinoma)
Summary of the method: as §1

[13] = test system: SCC-4 (Oral Cavity Carcinoma)
Summary of the method: as §1

[14] = test system: AM-38 (Glioblastoma)
Summary of the method: as §1

[15] = test system: NCI-H2373 (Mesothelioma)
Summary of the method: as §1

[16] = test system: SNU-423 (Hepatocellular Carcinoma)
Summary of the method: as §1

[17] = test system: T84 (Colorectal Carcinoma)
Summary of the method: as §1

[18] = test system: KP-4 (Pancreatic Carcinoma)
Summary of the method: as §1

[19] = test system: WM35 (Melanoma)
Summary of the method: as §1

[20] = test system: IST-MEL1 (Melanoma)
Summary of the method: as §1

SMILES	Bliss excess [1]	Bliss excess [2]	Bliss excess [3]	Bliss excess [4]	Bliss excess [5]	Bliss excess [6]	Bliss excess [7]	Bliss excess [8]	Bliss excess [9]	Bliss excess [10]	Bliss excess [11]	Bliss excess [12]	Bliss excess [13]	Bliss excess [14]	Bliss excess [15]	Bliss excess [16]	Bliss excess [17]	Bliss excess [18]	Bliss excess [19]	Bliss excess [20]
C=CCn1c(=O)c2cnc(Nc3ccc(N4CCN(C)CC4)cc3)nc2n1-c1cccc(C(C)(C)O)n1 [AZD1775] + C1CN(CCC1(C(=O)N[C@@H](CCO)C2=CC=C(C=C2)Cl)N)C3=NC=NC4=C3C=CN4 [Capivasertib] (first compound max 3 µM, partner max 3 µM)	0.0304	-0.0603	-0.0501	-0.0549	0.031	-0.0348	0.0518	0.0011	0.0603	-0.0227	0.0043	-0.0212	-0.0273	-0.0247	-0.0393	-0.0333	-0.0807	-0.0806		
COc1nnc2ccc(N3CCC(c4ccc(OCCN5CCN(C)C(=O)[C@H]5C)cc4)CC3)nn12 [AZD5153] + CN(CC[C@H](CSC1=CC=CC=C1)NC2=C(C=C(C=C2)S(=O)(=O)NC(=O)C3=CC=C(C=C3)N4CCC(CC4)[C@H](C5=CC=CC=C5C6=CC=C(C=C6)Cl)O)S(=O)(=O)C(F)(F)F)CCO [AZD4320] (first compound max 1 µM, 7x7, partner max 1 µM)	0.0367			0.0732			-0.0028	0.0146				0.0846		0.103	0.0157				0.0983	
Cc1c2c(nn1C)CSCc1cc(n(C)n1)CSc1cc(c3ccccc3c1)OCCCc1c(C(=O)O)n(C)c3c-2c(Cl)ccc13 [AZD5991] + C1CN(CCC1(C(=O)N[C@@H](CCO)C2=CC=C(C=C2)Cl)N)C3=NC=NC4=C3C=CN4 [Capivasertib] (first compound max 1 µM, 7x7, partner max 3 µM)	0.0332	-0.0119	-0.0119	0.0199	0.0378	-0.021	-0.0079	0.0312	0.0008	-0.0005	0.0144		0.0358	0.0026	-0.0671	-0.0822	-0.0185	-0.005	-0.0183	0.0025
Cc1c2c(nn1C)CSCc1cc(n(C)n1)CSc1cc(c3ccccc3c1)OCCCc1c(C(=O)O)n(C)c3c-2c(Cl)ccc13 [AZD5991] + Cn1cnc2c(F)c(Nc3ccc(Br)cc3Cl)c(C(=O)NOCCO)cc21 [Selumetinib] (first compound max 1 µM, 7x7, partner max 3 µM)	0.0253	-0.0218	-0.0609	-0.0325	0.0117	-0.0299	0.048	0.0082	-0.0172	0.0457	-0.0419	0.0015	0.0478	0.0517	-0.0345	-0.0599	0.0438	-0.0165	0.0794	
CC(=O)c1c(C)c2cnc(Nc3ccc(N4CCNCC4)cn3)nc2n(C2CCCC2)c1=O [Palbociclib] + CN(CC[C@H](CSC1=CC=CC=C1)NC2=C(C=C(C=C2)S(=O)(=O)NC(=O)C3=CC=C(C=C3)N4CCC(CC4)[C@H](C5=CC=CC=C5C6=CC=C(C=C6)Cl)O)S(=O)(=O)C(F)(F)F)CCO [AZD4320] (first compound max 10 µM, 7x7, partner max 1 µM)	0.0064			-0.0826			0.0414	-0.0122				-0.044		-0.0234	-0.0794				-0.114	
CCc1c2c(nc3ccc(O)cc13)-c1cc3c(c(=O)n1C2)COC(=O)[C@]3(O)CC [SN-38] + O=C(c1cc(Cc2n[nH]c(=O)c3ccccc23)ccc1F)N1CCN(C(=O)C2CC2)CC1 [Olaparib] (first compound max 0.3 µM, 7x7, partner max 10 µM)		0.0147	-0.0169	0.0386	0.141	0.053	0.0641	0.0342	0.0571	-0.005	0.026	0.0271	0.0071	-0.0023	-0.0716	-0.0025	-0.0279	0.0777	0.0733	0.0125
C[C@@H](c1ccc2nccn2c1)n1nnc2ncc(-c3cnn(C)c3)nc21 [Savolitinib] + CN(CC[C@H](CSC1=CC=CC=C1)NC2=C(C=C(C=C2)S(=O)(=O)NC(=O)C3=CC=C(C=C3)N4CCC(CC4)[C@H](C5=CC=CC=C5C6=CC=C(C=C6)Cl)O)S(=O)(=O)C(F)(F)F)CCO [AZD4320] (first compound max 1 µM, 7x7, partner max 1 µM)	-0.0327			-0.0801			-0.058	-0.0168				-0.0396		-0.0474	-0.0681				-0.051	
